Reference: US8461205B2, “Anthranilic acid derivatives” (Chelsea Therapeutics, Inc., priority 2007, dated 2013)
One block for each molecule: values may come before it.

Assays:
DHODH = DHODH (Homo sapiens, UniProt Q02127); assay: DHODH inhibition; format: biochemical
cell proliferation = settings: effect stated to be unrelated to DHODH inhibition; cited from earlier work
[1] = test system: human T lymphoblast cell line (Jurkat); assay: Inhibition of T-cell proliferation (Jurkat, 3H-TdR incorporation); format: cell-based; settings: Homo sapiens; Jurkat cells, 3 days culture, 3H-TdR pulse last 4 hours
Method: Inhibition of T cell proliferation was studied in a functional assay. A human T lymphoblast cell line (Jurkat) was cultured in the presence and absence, respectively, of DHODH inhibiting compounds. Jurkat cells were seeded in microtiterplates at a concentration of 5×10^5/mL in RPMI 1640 growth media supplemented with ultraglutamin, 10% fetal calf serum, 1 mM sodium pyruvat, 10 mM HEPES and 0.1 mg/mL gentamycin. A dilution series of ten different concentrations of inhibitor was added to the wells and the plates were kept in a cell incubator for 3 days. At the beginning of the last 4 hours period, the cultures were pulsed with 10 μl/well 0.1 Ci/mmol 3H-TdR and then harvested on filter papers and counted with a ([…]. The IC50 values for each compound were calculated from the obtained dose response curves. Adding uridine to a concentration of about 50 μM in the wells monitored the specificity for the mechanism i.e., the inhibition of cell proliferation is due to DHODH inhibition and not to a general cell toxicity of the compounds. This addition of uridine reverses the anti-proliferative effect by bypassing the DHODH enzyme using an external source of pyrimidine. Results in respect of a number of compounds of the invention are reported as Jurkat IC50 (in μM) in Table 1.
(§1) The inhibition of T cell proliferation was studied in a human T lymphoblast cell line (Jurkat). The IC50 value for each compound was calculated from the dose response curve. Adding uridine was used to monitor the specificity of the DHODH mechanism. The metabolic stability was studied in human liver microsomes. Table 1 exemplifies the invention, without limiting the scope thereof.

[2] = Metabolic stability in human liver microsomes; format: in vitro ADME; settings: human liver microsomes, 0.5 μM compound, 1 mg/mL protein, 1 mM NADPH, pH 7.4, 37° C.; "stable" = no degradation could be confirmed
Method: The metabolic stability of the test compounds was determined using human liver microsomes. Incubations were performed with a compound concentration of 0.5 μM and a protein concentration of 1 mg/mL in 50 mM sodium phosphate buffer at physiological pH (7.4) and temperature (37° C.). The incubation mixture was preincubated at 37° C. prior to addition of NADPH (1 mM, final concentration). At several time points during 60 minutes, aliquots were removed and added to a 96 well plate placed on dry ice and deep-frozen. Samples were analyzed with LC-MS for concentration of parent compound. From the slope of the log [parent compound] vs. incubation time regression line, the in vitro half-life […] was determined. The intrinsic clearance (CLint) can be calculated using a modified Michaelis-Menten relationship, i.e., CLint=ln 2/t1/2. The CLint can then be converted to CL by using the well-stirred model of hepatic extraction. A value of 1.24 L/h/kg of the hepatic blood flow in man can be used. Results with respect to a number of compounds of the invention are reported as t1/2 (in minutes) in Table 1.
as §1

Sequence of DHODH (Q02127 whole entry, species assumed): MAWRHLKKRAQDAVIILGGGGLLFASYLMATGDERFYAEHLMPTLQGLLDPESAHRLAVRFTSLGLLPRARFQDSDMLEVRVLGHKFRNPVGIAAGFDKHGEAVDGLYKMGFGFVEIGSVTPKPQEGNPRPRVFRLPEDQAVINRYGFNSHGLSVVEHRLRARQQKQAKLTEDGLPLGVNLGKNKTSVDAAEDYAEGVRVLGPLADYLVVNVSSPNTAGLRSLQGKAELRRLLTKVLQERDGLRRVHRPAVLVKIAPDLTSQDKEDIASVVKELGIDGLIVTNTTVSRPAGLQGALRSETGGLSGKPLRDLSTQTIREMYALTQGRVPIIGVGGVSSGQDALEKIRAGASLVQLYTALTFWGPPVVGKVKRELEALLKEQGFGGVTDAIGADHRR

- activity as DHODH inhibitor (in words) (DHODH): inactive
Structure (SMILES): COc1ccc(OC)c(COc2ccc(O)c(C(=O)O)c2)c1 [5-(2,5-dimethoxy-benzyloxy)-2-hydroxy-benzoic acid]

Structure (SMILES): COC(=O)c1cc(OCc2cc(OC)ccc2OC)ccc1NC(C)=O [2-acetylamino-5-(2,5-dimethoxy-benzyloxy)-benzoic acid methyl ester]
- inhibition of cell proliferation (in words) (cell proliferation): inhibits cell proliferation

- IC50 [1]: 710 nM
- half-life at 0.5 μM [2]: 3.3 h
Structure (SMILES): CCC(=O)Nc1ccc(COc2ccc(OC(F)(F)F)c(Br)c2)cc1C(=O)O [INV 22, 5-(3-Bromo-4-trifluoromethoxy-phenoxymethyl)-2-propionylamino-benzoic acid]
